Data taken from article PMC3207004 (Clinical cancer research : an official journal of the …, 2011).

Tests used:
[1] = system: cultured human retinal pigment epithelial cells (RPE); conditions: cited from earlier work
[2] = system: NSCLC; conditions: cited from earlier work
[3] = Plasma pharmacokinetics of PF-04928473 after oral PF-04929113; assay type: in vivo, human

For C=CCNC1=C2C[C@@H](C)C[C@H](OC)[C@H](O)[C@@H](C)/C=C(\C)[C@H](OC(N)=O)[C@@H](OC)/C=C\C=C(/C)C(=O)NC(=CC1=O)C2=O [17-AAG], the “Effect on cultured human retinal pigment epithelial cells” value [1] is given as “cytostaticity and cytotoxicity”.
In the case of C=CCNc1c(O)cc2c(O)c1C[C@@H](C)C[C@H](OC)[C@H](O)[C@@H](C)/C=C(\C)[C@H](OC(N)=O)[C@@H](OC)/C=C\C=C(/C)C(=O)N2 [IPI-504], the Objective response ([2]; 76 patients with NSCLC) is given as 7%, the “Objective response, number of patients” value ([2]; 76 patients with NSCLC) is given as 5 patients and the “Response among 3 patients with ALK rearrangements” value [2] is given as 2 PRs and one prolonged SD.
In the case of CC1(C)CC(=O)c2c(C(F)(F)F)nn(-c3ccc(C(N)=O)c(N[C@H]4CC[C@H](O)CC4)c3)c2C1 [PF-04928473], the “Time span in which active drug was detectable in plasma” value ([3]; after oral PF-04929113) is reported as “detectable at 20 minutes through 48 hours”, the “Clearance (CL/Fm)” value ([3]; high value) is reported as “hepatic and extra-hepatic clearance” and the “Volume of distribution (Vz/Fm)” value ([3]; high value) is reported as “extensive tissue binding”. For the same compound, the half-life ([3]; human, plasma, oral) was 8 to 15 h, the “Change of half-life across dose levels” value ([3]; in vivo) was “doesn’t appear to change across different dose levels” and the “Dose linearity of pharmacokinetics” value ([3]; in vivo) was “almost linear PK”. The “Dose linearity of pharmacokinetics” value ([3]; in vivo, listed as PF 04928473) was “almost linear pharmacokinetics”, the “Absorption following oral administration” value ([3]; patients) was “rapid absorption” and the “Drug accumulation after multiple dosing” value ([3]; twice weekly) was “no drug accumulation”.
For COC1=C2C[C@@H](C)C[C@H](OC)[C@H](O)[C@@H](C)/C=C(\C)[C@H](OC(N)=O)[C@@H](OC)/C=C\C=C(/C)C(=O)NC(=CC1=O)C2=O [geldanamycin], the “Effect on cultured human retinal pigment epithelial cells” value [1] is given as “cytostaticity and cytotoxicity”.
